Key:
[1] = system: cultured cortical neurons; assay: Mitochondrial function under OGD, Rh123 de-quenching assay; assay type: cell-based, mouse; conditions: WT neurons; 10 μM peptide overnight; 30 min OGD
Method: FIGS. 6F-6G show the effects of TAT-EE3 on mitochondrial function evaluated using R123 de-quenching assay. Cultured cortical from gM2KO mice, nM2KO mice and WT control littermates were incubated with 10 μM TAT-SC or TAT-EE3 for overnight before OGD exposure. […] External perfusion solution aCSF containing no Ca2+ (No Ca2+) was used as a control. WT neuron without OGD exposure was used as a control (WT control) to illustrate the rapid photo bleaching of Rh123. […] The accumulated numbers of neurons in each group for data analysis were from 3˜5 independent experiments using neurons isolated from 3 mice/group (***, p<0.001; ANOVA, Bonferroni's test; mean±SEM).
Mice pups at P0 were euthanized based on animal protocol. Whole brain was dissected out immediately and immersed in ice-cold Hank's Balanced Salt Solution (HBSS). […] Isolated cells were counted and plated on coverslips pre-coated with poly-L-lysine (Sigma-Aldrich, P4707) at a density about 500×10^3 cells/cm2 for OGD and H2O2 treatment, and 100×10^3 cells/cm2 for current recording. […]
Mitochondria function was evaluated using Rhodamine-123 dequenching as previously reported. […]
Fluorescence intensities at 509 nm with excitation at 488 nm was collected every 15 s for 30 min using CoolSNAP HQ2 (Photometrics) and data were analyzed using NIS-Elements (Nikon).

[2] = system: cultured cortical neurons; assay: OGD-induced Ca2+ overload and neuronal death, Fura-2 ratio Ca2+ imaging; assay type: cell-based, mouse; conditions: for OGD-mediated neuronal death: WT neurons, 10 μM overnight
Method: FIGS. 6C-6E show the effects of TAT-EE3 on Ca2+ overload and neuronal death caused by OGD. Cultured WT and gM2KO cortical neurons were treated with 10 μM TAT-SC and TAT-EE3 for overnight before experiments.
Mice pups at P0 were euthanized based on animal protocol. Whole brain was dissected out immediately and immersed in ice-cold Hank's Balanced Salt Solution (HBSS). Meninges were removed thoroughly, and tissue of different brain areas was taken based on purposes. Brain tissue was cut into small pieces and digested with 0.25% trypsin (Thermal Fisher Scientific, 15090-046) in HBSS at 37° C. for 20 min. Digestion solution was quickly removed, and tissue pellets are washed with Neurobasal® Medium (Thermal Fisher Scientific, 21103-049) for 3 times. Cells were resuspended with appropriate amount of Neurobasal® Medium supplemented with 2% B27® supplement (Thermal Fisher Scientific, 17504-044), 3% horse serum (Thermal Fisher Scientific, 16050114), 0.25% L-glutamine (Thermal Fisher Scientific, 25030-081) and 1% penicillin/streptomycin (Thermal Fisher Scientific, 15140-122). Isolated cells were counted and plated on coverslips pre-coated with poly-L-lysine (Sigma-Aldrich, P4707) at a density about 500×10^3 cells/cm2 for OGD and H2O2 treatment, and 100×10^3 cells/cm2 for current recording. Cytosine arabinoside (Sigma-Aldrich, C1768) was added to maintain a concentration at 1 μM to inhibit the proliferation of non-neuronal cells. 24 h after plating, culture medium was changed to Neurobasal® Medium supplemented with 2% B27® supplement, 0.25% L-glutamine and 1% penicillin/streptomycin. The concentration of Cytosine arabinoside (araC) was increased to 2 μM. Medium was changed every 3 days. OGD and H2O2 treatment was conducted at 7th day of culture, and current recording was conducted at 7th, 10th and 14th day of culture.
Oxygen-glucose deprivation (OGD) was achieved by replace the glucose in aCSF with sucrose, and 95% N2 and 5% CO2 was used to equilibrate sucrose-aCSF to displace oxygen. This condition typically yielded a pO2 of <5 mm Hg in the imaging chamber (Thompson, R. J., Zhou, N., and Mac Vicar, B. A. (2006). Ischemia opens neuronal gap junction hemichannels. Science 312, 924-27). At least 10 min was allowed for neurons to adapt to the change from culture medium to aCSF before OGD was applied.
Changes of intracellular Ca2+ was measured using ratio Ca2+ imaging as we describe previously (Du, J., Xie, J., Zhang, Z., Tsujikawa, H., Fusco, D., Silverman, D., Liang, B., and Yue, L. (2010). TRPM7-mediated Ca2+ signals confer fibrogenesis in human atrial fibrillation. Circulation research 106, 992-1003). In brief, Fura-2 AM (Thermal Fisher Scientific, F1221) was dissolved in DMSO to make a stock concentration at 1 mM. Pre-warmed Neurobasal® Medium (Thermal Fisher Scientific, 21103-049) was used to dilute Fura-2 AM to a working concentration at 2.5 μM, and 0.02% Pluronic™ F-127 (Thermal Fisher Scientific, P3000MP) was added to facilitate loading of Fura-2 AM. Cells plated on 25 mm glass coverslips were washed using pre-warmed PBS for 3 times, and then incubated with 2 ml of Fura-2 AM working solution for 30˜45 min at 37° C. […]
Ca2+ influx was measured by perfusing the cells with Tyrode's solution for transfected HEK293T cells or aCSF for neurons under different conditions. […] Fluorescence intensities at 510 nm with 340 nm and 380 nm excitation were collected at a rate of 1 Hz using CoolSNAP HQ2 (Photometrics) and data were analyzed using NIS-Elements (Nikon). […]

[3] = pretreatment 10 μM overnight, F340/380

**Q.** For “TAT-EE3: membrane permeable disrupting peptide, sequence YGRKKRRQRRREEDTDSSEEMLALAEE (SEQ ID NO: 4)”, which “mitochondrial membrane depolarization induced by OGD (Rh123 fluorescence)” value [1] is on record?
**A.** The value was “markedly inhibited”.

**Q.** What about the OGD-mediated neuronal death ([2]; 30 min OGD, WT without TAT-EE3 10.6%) of the same substance?
**A.** Its OGD-mediated neuronal death is 3.6%.

**Q.** What about the OGD-mediated neuronal death ([2]; 60 min OGD, WT without TAT-EE3 47.6%) of the same substance?
**A.** Its OGD-mediated neuronal death is 9.9%.

**Q.** What about the OGD-mediated neuronal death ([2]; 90 min OGD, WT without TAT-EE3 70.5%) of the same substance?
**A.** The OGD-mediated neuronal death was 45.2%.

**Q.** What about the “OGD-induced changes of intracellular Ca2+ in TRPM2-KO neurons” value [2, 3] of the same substance?
**A.** The value was “not in TRPM2-KO neurons”.

**Q.** What about the “OGD-induced changes of intracellular Ca2+ in WT neurons” value [2, 3] of the same substance?
**A.** Its value is “significantly reduced”.

Source: patent US20250235501A1, “Methods and Compositions for Treating or Preventing Neurological Injury or Neurological Disorders” (University of Connecticut, priority 2024, published 2025)
